Where a SMILES comes first, the peptide text is derived from it. Bridges are numbered along the chain shown (N, C = ends). [ ]: non-standard residue; d: D form. The star is where a group is joined. Ileψ(thiazoline)Cys = CC[C@H](C)[C@H](N)C1=N[C@H](C(=O)*)CS1; dOrn = NCCC[C@@H](N)C(=O)O
Columns and labels:
[1] = DRUGMATRIX: Calcium Channel Type L, Benzothiazepine radioligand binding (ligand: [3H] Diltiazem); type: cell membranes, Rattus norvegicus, Wistar, Brain, Membrane; conditions: Not Active = under 50% inhibition at 10 µM
[2] = target: Cannabinoid receptor 1 (Homo sapiens, UniProt P21554); type: cell membranes, Membrane; conditions: chem-1; also: in other assays of this panel Not Active means under 50% inhibition at 10 µM
Chain of Cannabinoid receptor 1 (P21554 whole entry): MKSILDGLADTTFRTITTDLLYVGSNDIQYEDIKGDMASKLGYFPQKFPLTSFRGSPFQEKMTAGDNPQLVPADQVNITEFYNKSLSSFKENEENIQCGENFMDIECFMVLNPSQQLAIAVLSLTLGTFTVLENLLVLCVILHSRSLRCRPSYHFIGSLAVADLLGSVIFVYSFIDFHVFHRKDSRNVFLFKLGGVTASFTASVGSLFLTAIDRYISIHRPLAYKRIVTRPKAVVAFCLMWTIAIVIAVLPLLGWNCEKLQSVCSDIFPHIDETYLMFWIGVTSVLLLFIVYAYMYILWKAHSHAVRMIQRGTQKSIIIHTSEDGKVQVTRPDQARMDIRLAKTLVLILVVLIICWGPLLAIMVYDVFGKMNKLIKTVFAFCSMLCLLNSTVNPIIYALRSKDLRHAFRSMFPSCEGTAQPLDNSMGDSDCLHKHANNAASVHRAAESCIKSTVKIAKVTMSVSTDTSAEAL

[3] = target: D(1A) dopamine receptor (Homo sapiens, UniProt P21728); assay: DRUGMATRIX: Dopamine D1 radioligand binding (ligand: [3H] SCH-23390); type: cell membranes, CHO, Membrane; conditions: cho; Not Active = under 50% inhibition at 10 µM
Chain of D(1A) dopamine receptor (P21728 whole entry): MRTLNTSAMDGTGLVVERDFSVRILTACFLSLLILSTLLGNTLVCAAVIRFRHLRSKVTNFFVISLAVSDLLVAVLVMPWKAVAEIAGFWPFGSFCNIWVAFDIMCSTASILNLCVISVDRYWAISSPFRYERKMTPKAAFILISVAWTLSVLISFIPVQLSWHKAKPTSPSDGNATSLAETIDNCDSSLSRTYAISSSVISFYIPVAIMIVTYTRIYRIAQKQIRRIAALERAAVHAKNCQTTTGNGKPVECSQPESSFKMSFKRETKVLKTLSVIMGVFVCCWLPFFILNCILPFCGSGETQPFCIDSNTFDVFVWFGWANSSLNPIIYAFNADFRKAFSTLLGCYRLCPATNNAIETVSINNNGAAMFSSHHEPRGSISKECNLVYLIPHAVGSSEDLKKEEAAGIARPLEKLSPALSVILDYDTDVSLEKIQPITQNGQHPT

[4] = target: D(3) dopamine receptor (Homo sapiens, UniProt P35462); assay: DRUGMATRIX: Dopamine D3 radioligand binding (ligand: [3H] Spiperone); type: cell membranes, CHO, Membrane; conditions: cho
Chain of D(3) dopamine receptor (P35462 whole entry): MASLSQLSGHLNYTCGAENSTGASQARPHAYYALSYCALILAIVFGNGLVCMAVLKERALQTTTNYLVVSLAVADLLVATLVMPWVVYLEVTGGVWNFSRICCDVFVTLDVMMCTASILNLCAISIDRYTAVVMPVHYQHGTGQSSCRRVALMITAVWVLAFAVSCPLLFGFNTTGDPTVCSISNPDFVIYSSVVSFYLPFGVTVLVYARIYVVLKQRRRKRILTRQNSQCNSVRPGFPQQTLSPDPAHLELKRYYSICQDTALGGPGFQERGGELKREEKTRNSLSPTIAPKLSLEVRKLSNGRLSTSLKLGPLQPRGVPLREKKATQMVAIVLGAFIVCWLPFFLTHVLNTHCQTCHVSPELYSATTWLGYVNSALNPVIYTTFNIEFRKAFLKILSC

[5] = target: T1, Endothelin-1 receptor (Homo sapiens, UniProt P25101); type: cell membranes, Membrane; conditions: cho-k1; also: in other assays of this panel Not Active means under 50% inhibition at 10 µM
T1 sequence (P25101 whole entry): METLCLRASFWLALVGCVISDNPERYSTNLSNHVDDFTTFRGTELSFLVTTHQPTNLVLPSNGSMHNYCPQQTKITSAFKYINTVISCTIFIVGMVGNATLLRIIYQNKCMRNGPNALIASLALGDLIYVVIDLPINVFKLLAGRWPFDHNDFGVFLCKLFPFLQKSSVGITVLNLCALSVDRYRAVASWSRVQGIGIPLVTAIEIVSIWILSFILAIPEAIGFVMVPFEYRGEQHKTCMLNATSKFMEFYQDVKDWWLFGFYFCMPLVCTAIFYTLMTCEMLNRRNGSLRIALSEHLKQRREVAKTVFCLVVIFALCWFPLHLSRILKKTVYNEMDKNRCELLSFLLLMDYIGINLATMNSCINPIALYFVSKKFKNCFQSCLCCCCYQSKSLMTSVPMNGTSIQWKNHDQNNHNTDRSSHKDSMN

[6] = DRUGMATRIX: Glutamate, Kainate radioligand binding (ligand: [3H] Kainic acid); type: cell membranes, Rattus norvegicus, Wistar, Brain, Membrane; conditions: Not Active = under 50% inhibition at 10 µM
[7] = target: T2, Muscarinic acetylcholine receptor M4 (Homo sapiens, UniProt P08173); type: cell membranes, CHO-K1, Membrane; conditions: cho-k1; also: in other assays of this panel Not Active means under 50% inhibition at 10 µM
T2 sequence (P08173 whole entry): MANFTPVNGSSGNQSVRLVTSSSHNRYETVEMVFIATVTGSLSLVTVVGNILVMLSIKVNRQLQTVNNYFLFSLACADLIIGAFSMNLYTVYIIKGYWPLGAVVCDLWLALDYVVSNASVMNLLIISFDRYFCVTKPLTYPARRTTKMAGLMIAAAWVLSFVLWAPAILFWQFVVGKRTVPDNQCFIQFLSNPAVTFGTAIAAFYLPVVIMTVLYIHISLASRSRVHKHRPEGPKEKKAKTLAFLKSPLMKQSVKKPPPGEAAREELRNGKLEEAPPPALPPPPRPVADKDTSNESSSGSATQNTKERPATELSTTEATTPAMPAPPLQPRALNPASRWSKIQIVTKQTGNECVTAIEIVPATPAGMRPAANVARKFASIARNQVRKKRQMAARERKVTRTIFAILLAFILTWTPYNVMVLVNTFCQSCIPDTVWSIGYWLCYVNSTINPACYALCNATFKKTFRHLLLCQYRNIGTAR

[8] = target: T3, Neuropeptide Y receptor type 1 (Homo sapiens, UniProt P25929); type: cell membranes, Membrane; conditions: sk-n-mc; also: in other assays of this panel Not Active means under 50% inhibition at 10 µM
T3 sequence (P25929 whole entry): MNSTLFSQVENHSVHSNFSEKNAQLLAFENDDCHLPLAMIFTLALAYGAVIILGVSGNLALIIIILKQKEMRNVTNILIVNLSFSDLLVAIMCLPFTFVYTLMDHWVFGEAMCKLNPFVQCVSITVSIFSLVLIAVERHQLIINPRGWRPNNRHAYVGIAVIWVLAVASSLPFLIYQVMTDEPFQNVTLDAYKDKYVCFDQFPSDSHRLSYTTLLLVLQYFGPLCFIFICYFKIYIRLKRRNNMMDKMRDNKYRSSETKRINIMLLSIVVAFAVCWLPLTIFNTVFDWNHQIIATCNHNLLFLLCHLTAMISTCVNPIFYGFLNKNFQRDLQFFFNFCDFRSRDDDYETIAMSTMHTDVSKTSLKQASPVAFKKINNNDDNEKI

[9] = target: Delta-type opioid receptor (Homo sapiens, UniProt P41143); type: cell membranes, HEK293, Membrane; conditions: hek293; also: in other assays of this panel Not Active means under 50% inhibition at 10 µM
Chain of Delta-type opioid receptor (P41143 whole entry): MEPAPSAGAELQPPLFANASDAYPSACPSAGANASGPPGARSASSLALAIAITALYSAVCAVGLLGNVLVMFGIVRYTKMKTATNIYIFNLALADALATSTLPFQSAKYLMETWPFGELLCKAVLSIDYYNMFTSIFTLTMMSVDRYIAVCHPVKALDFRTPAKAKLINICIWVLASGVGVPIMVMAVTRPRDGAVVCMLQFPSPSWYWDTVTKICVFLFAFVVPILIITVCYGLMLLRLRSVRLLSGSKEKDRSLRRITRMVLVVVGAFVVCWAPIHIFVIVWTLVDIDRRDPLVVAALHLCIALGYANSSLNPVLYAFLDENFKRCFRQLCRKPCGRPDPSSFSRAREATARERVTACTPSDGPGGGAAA

[10] = DRUGMATRIX: Phosphodiesterase PDE3 enzyme inhibition (substrate: [3H]cAMP + cAMP); type: tissue-based, Homo sapiens; conditions: platelet; Not Active = under 50% inhibition at 10 µM
[11] = target: T4, Neutrophil elastase (Homo sapiens, UniProt P08246); type: tissue-based
T4 sequence (P08246 whole entry): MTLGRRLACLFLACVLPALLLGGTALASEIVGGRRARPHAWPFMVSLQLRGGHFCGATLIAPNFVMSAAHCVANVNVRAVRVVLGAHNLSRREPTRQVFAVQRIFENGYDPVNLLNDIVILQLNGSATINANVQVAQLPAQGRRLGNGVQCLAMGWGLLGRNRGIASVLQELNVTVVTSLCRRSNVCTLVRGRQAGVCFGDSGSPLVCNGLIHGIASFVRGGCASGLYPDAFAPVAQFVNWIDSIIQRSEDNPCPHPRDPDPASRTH

[12] = target: T5, 5-hydroxytryptamine receptor 1A (Rattus norvegicus, UniProt P19327); type: cell membranes, CHO-K1, Membrane; conditions: cho-k1; also: in other assays of this panel Not Active means under 50% inhibition at 10 µM
T5 sequence (P19327 whole entry): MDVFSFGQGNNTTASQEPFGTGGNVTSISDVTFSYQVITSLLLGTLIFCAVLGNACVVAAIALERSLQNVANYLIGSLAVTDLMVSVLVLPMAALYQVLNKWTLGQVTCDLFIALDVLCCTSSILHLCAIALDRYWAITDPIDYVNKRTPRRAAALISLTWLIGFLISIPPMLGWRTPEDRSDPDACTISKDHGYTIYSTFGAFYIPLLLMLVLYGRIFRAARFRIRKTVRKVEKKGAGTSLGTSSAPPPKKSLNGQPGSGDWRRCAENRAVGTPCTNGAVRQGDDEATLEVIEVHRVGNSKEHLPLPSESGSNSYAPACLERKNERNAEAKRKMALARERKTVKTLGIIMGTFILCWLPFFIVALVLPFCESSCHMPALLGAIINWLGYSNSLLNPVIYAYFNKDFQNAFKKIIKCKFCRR

[13] = target: Acetylcholinesterase (Homo sapiens, UniProt P22303); assay: DRUGMATRIX: Acetylcholinesterase enzyme inhibition (substrate: acetylthiocholine); type: cell-based, HEK293; conditions: hek293; Not Active = under 50% inhibition at 10 µM
Chain of Acetylcholinesterase (P22303 whole entry): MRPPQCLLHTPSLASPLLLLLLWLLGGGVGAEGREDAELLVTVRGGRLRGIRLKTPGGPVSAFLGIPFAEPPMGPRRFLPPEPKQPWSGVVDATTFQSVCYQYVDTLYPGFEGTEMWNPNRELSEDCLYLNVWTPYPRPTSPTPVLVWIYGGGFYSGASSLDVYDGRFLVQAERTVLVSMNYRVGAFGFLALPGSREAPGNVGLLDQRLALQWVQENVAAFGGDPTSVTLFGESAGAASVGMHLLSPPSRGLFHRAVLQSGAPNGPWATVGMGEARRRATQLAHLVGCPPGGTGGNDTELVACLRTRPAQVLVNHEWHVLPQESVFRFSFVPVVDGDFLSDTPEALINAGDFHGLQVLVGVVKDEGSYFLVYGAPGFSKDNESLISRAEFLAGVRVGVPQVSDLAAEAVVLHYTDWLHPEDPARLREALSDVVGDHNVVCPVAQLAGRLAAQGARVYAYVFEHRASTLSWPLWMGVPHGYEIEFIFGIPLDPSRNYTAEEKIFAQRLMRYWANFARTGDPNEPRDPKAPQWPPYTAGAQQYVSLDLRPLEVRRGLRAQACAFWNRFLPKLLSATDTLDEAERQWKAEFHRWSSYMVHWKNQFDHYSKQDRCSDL

CCOC(=O)OC(C)OC1=C(C(=O)Nc2ccccn2)N(C)S(=O)(=O)c2ccccc21 (stereo not drawn) [AMPIROXICAM]
Not Active: IC50 [1] | Ki [1] | IC50 [2] | IC50 [3] | IC50 [4] | IC50 [5] | IC50 [6] | Ki [6] | IC50 [7] | IC50 [8] | IC50 [9] | IC50 [10] | Ki [10] | IC50 [11] | IC50 [12] | IC50 [13]

N#C[C@H](O[C@@H]1O[C@H](CO[C@@H]2O[C@H](CO)[C@@H](O)[C@H](O)[C@H]2O)[C@@H](O)[C@H](O)[C@H]1O)c1ccccc1 [AMYGDALIN]
Not Active: IC50 [1] | Ki [1] | IC50 [2] | IC50 [3] | IC50 [4] | IC50 [5] | IC50 [6] | Ki [6] | IC50 [7] | IC50 [8] | IC50 [9] | IC50 [10] | Ki [10] | IC50 [11] | IC50 [12] | IC50 [13]

N=C(N)NCCCCNC(=N)N.O=S(=O)(O)O [ARCAINE SULFATE]
Not Active: IC50 [1] | Ki [1] | IC50 [2] | IC50 [3] | IC50 [4] | IC50 [5] | IC50 [6] | Ki [6] | IC50 [7] | IC50 [8] | IC50 [9] | IC50 [10] | Ki [10] | IC50 [11] | IC50 [12] | IC50 [13]

C=C1[C@@H]2CCC3[C@@](CC[C@@H]4[C@H](C(=O)O)C[C@@H](O[C@@H]5O[C@H](CO)[C@@H](OS(=O)(=O)[O-])[C@H](OS(=O)(=O)[O-])[C@H]5OC(=O)CC(C)C)C[C@@]34C)(C2)[C@@H]1O.[K+].[K+] (stereo partly drawn) [ATRACTYLOSIDE]
Not Active: IC50 [1] | Ki [1] | IC50 [2] | IC50 [3] | IC50 [4] | IC50 [5] | IC50 [6] | Ki [6] | IC50 [7] | IC50 [8] | IC50 [9] | IC50 [10] | Ki [10] | IC50 [11] | IC50 [12] | IC50 [13]

Cn1cnc([N+](=O)[O-])c1Sc1ncnc2nc[nH]c12 [AZATHIOPRINE]
Not Active: IC50 [1] | Ki [1] | IC50 [2] | IC50 [3] | IC50 [4] | IC50 [5] | IC50 [6] | Ki [6] | IC50 [7] | IC50 [8] | IC50 [9] | IC50 [10] | Ki [10] | IC50 [11] | IC50 [12] | IC50 [13]

CC1(C)S[C@@H]2[C@H](NC(=O)[C@H](NC(=O)N3CCNC3=O)c3ccccc3)C(=O)N2[C@H]1C(=O)O [AZLOCILLIN]
Not Active: IC50 [1] | Ki [1] | IC50 [2] | IC50 [3] | IC50 [4] | IC50 [5] | IC50 [6] | Ki [6] | IC50 [7] | IC50 [8] | IC50 [9] | IC50 [10] | Ki [10] | IC50 [11] | IC50 [12] | IC50 [13]

CC[C@H](C)[C@H](N)C1=N[C@H](C(=O)N[C@@H](CC(C)C)C(=O)N[C@H](CCC(=O)O)C(=O)N[C@H](C(=O)N[C@H]2CCCCNC(=O)[C@H](CC(N)=O)NC(=O)[C@@H](CC(=O)O)NC(=O)[C@H](Cc3cnc[nH]3)NC(=O)[C@@H](Cc3ccccc3)NC(=O)[C@H]([C@@H](C)CC)NC(=O)[C@@H](CCCN)NC2=O)[C@@H](C)CC)CS1 [BACITRACIN] ({Ileψ(thiazoline)Cys}-L[dE]IK[dOrn]I[dF]H[dD]N; lactam 4-C)
Not Active: IC50 [1] | Ki [1] | IC50 [2] | IC50 [3] | IC50 [4] | IC50 [5] | IC50 [6] | Ki [6] | IC50 [7] | IC50 [8] | IC50 [9] | IC50 [10] | Ki [10] | IC50 [11] | IC50 [12] | IC50 [13]

CCOC(=O)c1ccc(N)cc1 [BENZOCAINE]
Not Active: IC50 [1] | Ki [1] | IC50 [2] | IC50 [3] | IC50 [4] | IC50 [5] | IC50 [6] | Ki [6] | IC50 [7] | IC50 [8] | IC50 [9] | IC50 [10] | Ki [10] | IC50 [11] | IC50 [12] | IC50 [13]
